Results from US11246844B2, “Methods for inhibiting conversion of choline to trimethylamine (TMA)” (The Procter & Gamble Company, priority 2016, dated 2022).
Where a name gives a salt, the structure may show the parent alone.

test system: Pseudomonas aeruginosa; assay: not given; conditions: growth on glycine betaine and dimethyl glycine; cited from earlier work

Row | SMILES | Growth of P. aeruginosa on GB and DMG
1 | C#CC[N+](C)(C)CCO [ID 21, N-(2-hydroxyethyl)-N,N-dimethyl-2-propyn-1-aminium bromide] | inhibited

test system: plasma TMAO; assay: Preclinical screening method: plasma TMAO in mice on 1% Choline Added diet (Example 3); format: in vivo, mice (C57bl/6); conditions: Mus musculus, 24 h; mice, oral gavage once daily, 310 mg/kg/day, day 1, blood 20 hours post gavage; read-out: Remaining plasma TMAO as percentage of plasma TMAO in same day vehicle control (% of control remaining)
Experimental: Starting at day 0, mice (C57bl/6, ˜19 g, 10 wk of age; n=5/group) were maintained in accordance with the NIH guidelines in a 12:12 hr light:dark cycle and provided with 1% Choline Added diet (Envigo custom formulation prepared, similar to Teklad Global Rodent Diet 2018) ad libitum. Concurrent with introduction of the diet mice were gavaged once daily orally using a 1.5″ 22G ball-tip curved feeding needle to administer compound in 200 μl or less of water at one or multiple of the dose 0, 1.0, 3.1, 10, 31, 100 or 310 mg/kg/day. Urine was collected once daily in the morning. Animals were restrained by hand and bladder was expressed by gentle palpation of the pelvic region. Aliquots of 1-5 μl of urine were centrifuged at 1,300×g for 5 min in a 1.5 mL conical bottom tube with a snap top, to precipitate any potential cellular debris, and supernatants were transferred to a clean screw-cap tube with o-ring seal and stored at −80° C. until analysis. Sixty microliters or less of blood was collected at 20 hours post gavage, into a heparinized capillary tube. Blood was kept at 4° C., then spun using a centrifuge (5 min in centrifuge designed to capillary tubes) to separate plasma and hematocrit within 4 hours after collection. Plasma samples were stored at −80° C.
For measurement of TMA in plasma, samples were acidified (10 mM HCl final) prior to storage at −80° C. TMAO and trimethylamine (TMA) and their d9-isotopologues were quantified using stable isotope dilution HPLC with on-line electrospray ionization tandem mass spectrometry ([…]) methods as described in (Wang Z, Klipfell E, Bennett B J, et al. (2011) Gut flora metabolism of phosphatidylcholine promotes cardiovascular disease. Nature 472:57-63) using d4(1,1,2,2)-choline, d3(methyl)-TMAO, and d3(methyl)-TMA as internal standards. Concentrations of TMAO in urine were adjusted for urinary dilution by analysis of urine creatinine concentration. Samples were taken at different days during the studies and different doses were administered to avoid side effects at higher doses of some of the compounds.

Row | SMILES | response vs control in vivo at 310 mg/kg/day [%]
2 | C#CC[N+](C)(C)CC(=C)C(=O)OC [2-(methoxycarbonyl)-N,N-dimethyl-N-(prop-2-yn-1-yl)prop-2-en-1-aminium bromide] | 69
3 | C#CC[N+](C)(C)CC(=C)C#N [2-cyano-N,N-dimethyl-N-(prop-2-yn-1-yl)prop-2-en-1-aminium bromide] | 46.2
4 | C#CC[N+](C)(C)CCCCC(=O)O [4-carboxy-N,N-dimethyl-N-(prop-2-yn-1-yl)butan-1-aminium bromide] | 64.4

same assay, conditions: Mus musculus, 72 h; mice, oral gavage once daily, 100 mg/kg/day, day 3, blood 20 hours post gavage; read-out: Remaining plasma TMAO as percentage of plasma TMAO in same day vehicle control (% of control remaining)

Row | SMILES | response vs control in vivo at 100 mg/kg/day [%]
5 | C#CC[N+](C)(C)CC(=O)O | 6.06

same assay, conditions: Mus musculus, 72 h; mice, oral gavage once daily, 310 mg/kg/day, day 3, blood 20 hours post gavage; read-out: Remaining plasma TMAO as percentage of plasma TMAO in same day vehicle control (% of control remaining)

Row | SMILES | response vs control in vivo at 310 mg/kg/day [%]
6 | C#CC[N+](C)(C)CCO [ID 21, N-(2-hydroxyethyl)-N,N-dimethyl-2-propyn-1-aminium bromide] | 0.94
7 | C#CC[N+](C)(C)CBr [ID 41, bromomethyl-dimethyl-prop-2-ynyl-ammonium bromide] | 0.23
8 | C#CC[N+](C)(C)CI [ID 42, iodomethyl-dimethyl-prop-2-ynyl-ammonium iodide] | 0.1

same assay, conditions: Mus musculus, po, 24 h, read-out: Remaining plasma TMAO as percentage of plasma TMAO in same day vehicle control (% of control remaining)

Row | SMILES | response vs control in vivo at 310 mg/kg/day [%]
9 | C#CC[N+](C)(C)CCl [ID 40, chloromethyl-dimethyl-prop-2-ynyl-ammonium iodide] | 0.43

same assay, conditions: Mus musculus, po, 72 h, read-out: Remaining plasma TMAO as percentage of plasma TMAO in same day vehicle control (% of control remaining)

Row | SMILES | response vs control in vivo at 310 mg/kg/day [%]
10 | C#CC[N+](C)(C)C [ID 33, trimethyl(prop-2-ynyl)ammonium iodide] | 0.41

test system: Proteus mirabilis 29906 (Pm) lysate; assay: Inhibition of conversion of choline to TMA in Proteus mirabilis lysate (Example 2); format: biochemical; conditions: Pm lysate 1.5 mg/mL protein, 50 μM d9-choline chloride, 37° C., two hours, d9-TMA by LC-MS/MS; read-out: TMA Inhibition (IC50, mol/L)

Row | SMILES | IC50 [nM]
11 | C#CC[N+](C)(C)CC(=C)C(=O)OC [compound 1, 2-(methoxycarbonyl)-N,N-dimethyl-N-(prop-2-yn-1-yl)prop-2-en-1-aminium] | 13.2
12 | C#CC[N+](C)(C)CCCCC(=O)O [compound 2, 4-carboxy-N,N-dimethyl-N-(prop-2-yn-1-yl)butan-1-aminium] | 110
13 | COC(C[N+](C)(C)CCO)OC [compound 3, N-(2-hydroxyethyl)-2,2-dimethoxy-N,N-dimethylethan-1-aminium] | 2400
14 | C#CC[N+](C)(C)CC(OC)OC [compound 4, N-(2,2-dimethoxyethyl)-N,N-dimethylprop-2-yn-1-aminium] | 525
15 | C#CC[N+](C)(C)CC(O)O [compound 5, N-(2,2-dihydroxyethyl)-N,N-dimethylprop-2-yn-1-aminium] | 5310
16 | C#CC[N+](C)(C)CC(OCC)OCC [compound 6, N-(2,2-diethoxyethyl)-N,N-dimethylprop-2-yn-1-aminium] | 88200
17 | C#CC[N+](C)(C)CCCCCC(=O)O [compound 7, 5-carboxy-N,N-dimethyl-N-(prop-2-yn-1-yl)pentan-1-aminium] | 216
18 | C#CC[N+](C)(C)CC(=C)C(=O)O [compound 8, 2-carboxy-N,N-dimethyl-N-(prop-2-yn-1-yl)prop-2-en-1-aminium bromide] | 76.4
19 | C=C(C#N)C[N+]1(C)C2CCCC1CC2 (centres unmarked) [compound 14, 8-(2-cyanoallyl)-8-methyl-8-azabicyclo[3.2.1]octan-8-ium] | 44600
20 | C#CC[N+](C)(C)CCN [compound 15, 2-aminoethyl-dimethyl-prop-2-ynyl-ammonium, hydrochloride] | 3010
21 | C#CC[N+]1(C)C2CCCC1CC2 (centres unmarked) [compound 18, 8-methyl-8-(prop-2-yn-1-yl)-8-azabicyclo[3.2.1]octan-8-ium] | 1610
22 | C=CC[N+](C)(C)CC=C [compound 23, N,N-dimethyl-N-2-propenyl-2-propen-1-aminium] | 3030
23 | C=CC[N+](CC=C)(CC=C)CC=C [compound 30, N,N,N-tri(prop-2-en-1-yl)prop-2-en-1-aminium] | 694000
24 | C#CC[N+](C)(C)C [compound 33] | 0.115
25 | C#CC[N+](C)(C)CCl [compound 40, chloromethyl-dimethyl-prop-2-ynyl-ammonium] | 0.0164
26 | C#CC[N+](C)(C)CCBr [compound 43, 2-bromoethyl-dimethyl-prop-2-ynyl-ammonium] | 140

The next lines start with the values.

Row | IC50 [nM] | SMILES
27 | 130 | C#CC[N+](C)(C)CC(N)=O [compound 9, N-(2-amino-2-oxoethyl)-N,N-dimethylprop-2-yn-1-aminium]
28 | 15500 | C=C(C[N+](C)(C)CCO)C(=O)O [compound 10, 2-carboxy-N-(2-hydroxyethyl)-N,N-dimethylprop-2-en-1-aminium]
29 | 63.1 | C=C(C#N)C[N+](C)(C)CCO [compound 11, 2-cyano-N-(2-hydroxyethyl)-N,N-dimethylprop-2-en-1-aminium]
30 | 4.74 | C#CC[N+](C)(C)CC(=C)C#N [compound 12, 2-cyano-N,N-dimethyl-N-(prop-2-yn-1-yl)prop-2-en-1-aminium]
31 | 63.1 | C#CC[N+](C)(C)CC(=O)C(=O)OC [compound 13, N-(3-methoxy-2,3-dioxopropyl)-N,N-dimethylprop-2-yn-1-aminium]
32 | 15700 | C#CCC[N+](C)(C)CCO [compound 16, N-(2-hydroxyethyl)-N,N-dimethylbut-3-yn-1-aminium]
33 | 124000 | C#CC[N+]1(C)CCC(O)CC1 (centres unmarked) [compound 17, 4-hydroxy-1-methyl-1-(prop-2-yn-1-yl)piperidin-1-ium]
34 | 21.6 | C#CC[N+](C)(C)CC(=O)O [compound 19, N-(carboxymethyl)-N,N-dimethylprop-2-yn-1-aminium]
35 | 44.1 | C#CC[N+](C)(C)CC(=O)OC [compound 20, N-(2-methoxy-2-oxoethyl)-N,N-dimethylprop-2-yn-1-aminium]
36 | 30.4 | C#CC[N+](C)(C)CCO [compound 21, N-(2-hydroxyethyl)-N,N-dimethyl-2-propyn-1-aminium]
37 | 152 | CC#CC[N+](C)(C)CCO [compound 22, N-(2-hydroxyethyl)-N,N-dimethyl-2-butyn-1-aminium]
38 | 1940 | C[N+](C)(CCO)CC1CO1 (centres unmarked) [compound 24, 2-hydroxy-N,N-dimethyl-N-(oxiran-2-ylmethyl)ethan-1-aminium]
39 | 6710 | C=CC[N+](C)(C)CCO [compound 25]
40 | 31700 | C#CC[N+](CC#C)(CC#C)CCO [compound 26, N-(2-hydroxyethyl)-N,N-di(prop-2-yn-1-yl)prop-2-yn-1-aminium]
41 | 117000 | C#CC[N+](C)(C)CCCO [compound 28, N-(3-hydroxypropyl)-N,N-dimethylprop-2-yn-1-aminium]
42 | 335000 | C[N+](C)(CC#N)CCO [compound 29, N-(cyanomethyl)-2-hydroxy-N,N-dimethylethan-1-aminium]
43 | 1810 | C#CC[N+](C)(C)CC(=O)O [compound 31]
44 | 899 | C/C=C/C[N+](C)(C)CCO [compound 32, [(E)-but-2-enyl]-(2-hydroxyethyl)-dimethyl-ammonium]
45 | 2.65 | C#CC[N+](C)(C)CC#C [compound 34, dimethyl-bis(prop-2-ynyl)ammonium]
46 | 64.4 | C=CC[N+](C)(C)CC#N [compound 35, allyl-(cyanomethyl)-dimethyl-ammonium]
47 | 279 | C#CC[N+](C)(C)CC#N [compound 36, cyanomethyl-dimethyl-prop-2-ynyl-ammonium]
48 | 50000 | C=CC[N+](C)(C)C [compound 37]
49 | 81000 | C#CC[N+](C)(CC#C)CC#C [compound 38, methyl-tris(prop-2-ynyl)ammonium]
50 | 87900 | C#CC[N+](CC#C)(CC#C)CC#C [compound 39, tetrakis(prop-2-ynyl)ammonium]
51 | 0.235 | C#CC[N+](C)(C)CBr [compound 41, bromomethyl-dimethyl-prop-2-ynyl-ammonium]
52 | 0.463 | C#CC[N+](C)(C)CI [compound 42, iodomethyl-dimethyl-prop-2-ynyl-ammonium]

same assay, conditions: read-out: TMA Inhibition (IC50, mol/L)

Row | SMILES | IC50 [nM]
53 | C=CC(=O)OCC[N+](C)(C)C [compound 27, 2-(acryloyloxy)-N,N,N-trimethylethan-1-aminium] | 68700
